{
  "source": "patent US4925848A",
  "about": "“Derivative of codeine useful as an agonist and process for the preparation of it” (Reckitt & Colman Products Limited, priority 1987, dated 1990)",
  "key": {"opioid receptor subtypes": {"test_system": "opioid receptor subtypes", "assay": "Mouse vas deferens preparation (MVD), agonist/antagonist profile at opioid receptor subtypes", "assay_type": "cell-based", "details": "for rank order of affinities: antagonists", "description": "(§1) To obtain some insight into the profiles at opioid receptor subtypes compounds of formula III where R=H, Cl, Br and Me were therefore examined in isolated tissue preparations. Comparative data on the previously disclosed dehydro compounds of formula III is also included. The results obtained in the mouse was deferens preparation (MVD)(Henderson et al Brit J Pharmacol., 46,764, 1972) for these compounds are shown in Table 2. Although the unsubstituted compounds (R=H) were full agonists in this test situation no delta-agonist properties could be detected. […] The corresponding methyl and bromo dihydro compounds were antagonists with the rank order of affinities: mu>delta>kappa.\n(§2) ke = Molar concentration of antagonist at which twice the concentration o\n(§3) the agonist was required to produce the same response as that produced in\n(§4) the absence of the antagonist; μ Agonist = Normorphine (NM); kAgonist\n(§5) Ethylketocyclazocine; dAgonist = DAla-D-Leu Enkephalin."}, "mu opioid receptor": {"molecular_target": "T1, mu opioid receptor (Mus musculus, UniProt P42866)", "T1 construct": "mu agonist normorphine", "T1 sequence (P42866 whole entry)": "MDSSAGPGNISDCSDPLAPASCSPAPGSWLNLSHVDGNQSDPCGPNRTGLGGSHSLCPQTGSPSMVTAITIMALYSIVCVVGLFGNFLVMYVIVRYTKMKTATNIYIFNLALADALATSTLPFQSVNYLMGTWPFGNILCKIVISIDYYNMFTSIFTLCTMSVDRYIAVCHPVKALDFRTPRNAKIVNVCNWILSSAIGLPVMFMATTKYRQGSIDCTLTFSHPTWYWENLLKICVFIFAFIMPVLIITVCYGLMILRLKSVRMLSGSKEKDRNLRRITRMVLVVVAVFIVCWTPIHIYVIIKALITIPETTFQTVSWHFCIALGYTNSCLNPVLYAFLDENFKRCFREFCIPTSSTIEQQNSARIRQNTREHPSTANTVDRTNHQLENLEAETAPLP", "assay": "Mouse vas deferens preparation (MVD), mu receptor (normorphine)", "assay_type": "cell-based", "details": "in vitro MVD; for Kb: antagonist of normorphine, read-out: ke, μ", "description": "as §1, §2, §3, §4, §5"}, "kappa opioid receptor": {"test_system": "kappa opioid receptor", "assay": "Mouse vas deferens preparation (MVD), kappa receptor (ethylketocyclazocine)", "assay_type": "cell-based", "details": "in vitro MVD; antagonist of ethylketocyclazocine; read-out: ke, k", "description": "as §1, §2, §3, §4, §5"}, "delta opioid receptor": {"molecular_target": "T2, delta opioid receptor (Mus musculus, UniProt P32300)", "T2 construct": "delta agonist DAla-D-Leu enkephalin", "T2 sequence (P32300 whole entry)": "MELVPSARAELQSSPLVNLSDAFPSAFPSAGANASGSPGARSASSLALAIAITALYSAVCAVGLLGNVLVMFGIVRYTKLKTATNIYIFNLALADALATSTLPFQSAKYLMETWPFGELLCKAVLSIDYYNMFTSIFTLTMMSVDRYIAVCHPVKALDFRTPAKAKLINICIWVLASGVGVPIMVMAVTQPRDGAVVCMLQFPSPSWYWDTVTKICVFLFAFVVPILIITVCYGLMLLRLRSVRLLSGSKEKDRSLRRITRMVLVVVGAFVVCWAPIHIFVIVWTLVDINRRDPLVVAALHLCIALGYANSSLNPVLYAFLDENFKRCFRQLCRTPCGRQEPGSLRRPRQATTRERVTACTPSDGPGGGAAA", "assay": "Mouse vas deferens preparation (MVD), delta receptor (DAla-D-Leu enkephalin)", "assay_type": "cell-based", "details": "for Kb: antagonist of DAla-D-Leu enkephalin, read-out: ke, d", "description": "as §1, §2, §3, §4, §5"}, "kappa and mu receptors": {"test_system": "kappa and mu receptors", "assay": "DMPP stimulated guinea pig ileum (GPI) preparation (kappa and mu test)", "assay_type": "cell-based", "details": "in words", "description": "*In the guinea pig ileum preparation (GPI), as described on page 268 of […]"}, "[1]": {"test_system": "drug reinforcing effects in rhesus monkeys", "assay": "Self-administration study in codeine-trained rhesus monkeys (drug reinforcing effects)", "assay_type": "in vivo, rhesus monkey", "details": "for response rates maintained compared with codeine: similar conditions, FIGS. 2 and 3", "protocol": "Drug reinforcing effects were evaluated in rhesus monkeys trained to respond for 0.32 mg/kg/iv injection of codeine."}, "[2]": {"test_system": "rat tail pressure antinociception", "assay": "Rat tail pressure (RTP) antinociceptive test", "assay_type": "in vivo", "details": "for agonist activity in the RPT test: in words", "description": "Compounds of formula III were initially examined in two antinociceptive tests (in vivo) to assess their analgesic potential and are shown in the following Table 1. These tests were:\n(2) The rat tail pressure (RTP) which is described by Green and Young, (Br. J. Pharmac Chemother., 6,572, 1951)."}, "[3]": {"test_system": "morphine antagonist activity", "details": "s.c., reported in a response filed during prosecution of the corresponding U.S. application; cited from earlier work"}, "delta receptor": {"molecular_target": "T3, delta receptor (Mus musculus, UniProt P32300)", "T3 construct": "agonism of compound I with delta-selective antagonist RX or mu-selective naltrexone", "T3 sequence (P32300 whole entry)": "as above", "assay": "MVD agonist effects of compound I in absence/presence of RX 8008M or naltrexone", "assay_type": "cell-based", "description": "^a Groups (n = 2-6) of MVD used in each treatment schedule.\n^b IC40 is the concentration of agonist required to reduce the\nmaximal contraction to electrical stimulation by 40 percent. The slow\nvalues in the presence or absence of the antagonists in the same"}, "mu receptor": {"test_system": "mu receptor", "assay": "GPI preparation, mu receptor agonism", "assay_type": "cell-based, guinea pig", "details": "in words"}, "kappa receptor": {"molecular_target": "kappa receptor (Cavia porcellus, UniProt P41144)", "sequence (P41144 whole entry)": "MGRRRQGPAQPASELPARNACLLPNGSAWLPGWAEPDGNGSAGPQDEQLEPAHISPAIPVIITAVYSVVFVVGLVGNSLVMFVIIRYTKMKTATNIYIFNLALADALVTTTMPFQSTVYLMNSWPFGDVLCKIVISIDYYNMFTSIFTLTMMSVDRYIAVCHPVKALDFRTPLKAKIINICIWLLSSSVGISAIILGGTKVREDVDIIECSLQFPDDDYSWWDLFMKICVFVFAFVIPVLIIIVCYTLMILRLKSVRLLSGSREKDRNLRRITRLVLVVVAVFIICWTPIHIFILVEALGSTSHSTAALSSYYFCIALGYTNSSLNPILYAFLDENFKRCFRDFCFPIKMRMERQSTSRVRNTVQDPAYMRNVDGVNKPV", "assay": "GPI preparation, kappa receptor agonism", "assay_type": "cell-based, guinea pig", "details": "in words"}},
  "note": "“Also recorded” adds a separate entry of the source.",
  "data": [
    {"smiles": "COc1ccc2c3c1O[C@H]1C(=O)CC[C@@]4(NC(=O)C=Cc5ccc(Br)cc5)[C@@H](C2)N(CC2CC2)CC[C@]314", "note": "[Br dihydro]", "values": [
      {"measurement": "rank order of affinities", "setting": "opioid receptor subtypes; in vitro MVD", "value": "mu>delta>kappa"},
      {"measurement": "MVD activity profile", "setting": "opioid receptor subtypes; in vitro MVD, in words", "value": "antagonists"},
      {"measurement": "agonist activity in MVD", "setting": "opioid receptor subtypes; in words", "value": "negligible agonist activity"},
      {"measurement": "Kb", "setting": "mu opioid receptor", "value": 0.32, "unit": "nM"},
      {"measurement": "Kb", "setting": "kappa opioid receptor", "value": 27.3, "unit": "nM"},
      {"measurement": "Kb", "setting": "delta opioid receptor; in vitro MVD", "value": 8.6, "unit": "nM"},
      {"measurement": "GPI dose-response curve / agonist activity", "setting": "kappa and mu receptors", "value": "negligible agonist activity"},
      {"measurement": "response rates maintained compared with codeine", "setting": "[1]", "value": "appropriately equal to the level of responding maintained by codeine"}
    ]},
    {"smiles": "COc1ccc2c3c1O[C@H]1C(=O)C=C[C@@]4(NC(=O)C=Cc5ccccc5)[C@@H](C2)N(CC2CC2)CC[C@]314", "note": "[Ex. 15]", "values": [
      {"measurement": "MVD activity profile", "setting": "opioid receptor subtypes; in vitro MVD, in words", "value": "μ and k-Agonist"},
      {"measurement": "agonist potency relative to normorphine (× NM)", "setting": "mu opioid receptor", "value": 200, "unit": "× NM"}
    ]},
    {"smiles": "COc1ccc2c3c1O[C@H]1C(=O)C=C[C@@]4(NC(=O)C=Cc5ccc(Cl)cc5)[C@@H](C2)N(CC2CC2)CC[C@]314", "note": "[Ex. 91]", "values": [
      {"measurement": "EC40", "setting": "opioid receptor subtypes; Mus musculus, in vitro MVD, Table 2, read-out: ED40 (μ + k-agonism)", "value": "> 0.3", "unit": "µg/mL"},
      {"measurement": "MVD activity profile", "setting": "opioid receptor subtypes; in vitro MVD, in words", "value": "Weak μ + k-Agonist"},
      {"measurement": "delta agonism in MVD", "setting": "delta opioid receptor; in vitro MVD, in words", "value": "No d-agonism detected"}
    ]},
    {"smiles": "COc1ccc2c3c1O[C@H]1C(=O)C=C[C@@]4(NC(=O)C=Cc5ccc(C)cc5)[C@@H](C2)N(CC2CC2)CC[C@]314", "note": "[Ex. 92]", "values": [
      {"measurement": "MVD activity profile", "setting": "opioid receptor subtypes; in vitro MVD, in words", "value": "Partial μ Agonist"}
    ]},
    {"smiles": "O=CN[C@@]12C=CC(=O)[C@@H]3Oc4c(O)ccc5c4[C@@]31CCN(CC1CC1)[C@@H]2C5", "note": "[Example 49]", "values": [
      {"measurement": "agonist activity in the RPT test", "setting": "[2]", "value": "neither the dehydro compound (Example 49) nor the dihydro compound (Example 108) exhibited agonist activity"},
      {"measurement": "AD50 (RTF test)", "setting": "[3]", "value": 0.132, "unit": "mg/kg"}
    ]},
    {"smiles": "O=CN[C@@]12CCC(=O)[C@@H]3Oc4c(O)ccc5c4[C@@]31CCN(CC1CC1)[C@@H]2C5", "note": "[Example 108]", "values": [
      {"measurement": "agonist activity in the RPT test", "setting": "[2]", "value": "neither the dehydro compound (Example 49) nor the dihydro compound (Example 108) exhibited agonist activity"},
      {"measurement": "AD50 (RTF test)", "setting": "[3]", "value": 0.16, "unit": "mg/kg"}
    ]},
    {"smiles": "COc1ccc2c3c1O[C@H]1C(=O)CC[C@@]4(NC(=O)C=Cc5ccccc5)[C@@H](C2)N(CC2CC2)CC[C@]314", "note": "[H dihydro]", "values": [
      {"measurement": "MVD activity profile", "setting": "opioid receptor subtypes; in vitro MVD, in words", "value": "μ Agonist"},
      {"measurement": "agonist potency relative to normorphine (× NM)", "setting": "mu opioid receptor", "value": "72,000 × NM"},
      {"measurement": "delta agonism in MVD", "setting": "delta opioid receptor; in vitro MVD, in words", "value": "No d-agonism detected"}
    ]},
    {"smiles": "COc1ccc2c3c1O[C@H]1C(=O)CC[C@@]4(NC(=O)C=Cc5ccc(Cl)cc5)[C@@H](C2)N(CC2CC2)CC[C@]314", "note": "[I, 14-β-p-chlorocinnamoylamino-7,8-dihydro-N-cyclopropylmethyl-norcodeinone]", "values": [
      {"measurement": "EC40", "setting": "delta opioid receptor; in vitro MVD, Table 2, read-out: ED40 (d-agonism)", "value": 3.1, "unit": "ng/mL"},
      {"measurement": "delta agonism in MVD", "setting": "delta opioid receptor; in vitro MVD, in words", "value": "delta-agonist activity; also recorded: d-Agonist"},
      {"measurement": "intrinsic activity at delta-receptors, in vitro summary", "setting": "delta opioid receptor; in words", "value": "substantial level of intrinsic activity at delta-receptors"},
      {"measurement": "IC40", "setting": "delta receptor", "value": 0.098, "unit": "ng/mL"},
      {"measurement": "IC40 in presence of RX 8008M", "setting": "delta receptor; MVD, + RX 8008M (10 ng/ml)", "value": "9.15 + 3.4 ng/ml"},
      {"measurement": "IC40 in presence of naltrexone", "setting": "delta receptor; MVD, + naltrexone (100 ng/ml)", "value": "1.44 + 0.01 ng/ml"},
      {"measurement": "GPI dose-response curve / agonist activity", "setting": "kappa and mu receptors", "value": "very shallow dose-response curve"},
      {"measurement": "antagonism of GPI response by RX 8008M", "setting": "kappa and mu receptors; RX 8008M (25 nM)", "value": "atagonised by RX 8008M (25 nM)"},
      {"measurement": "mu agonist activity in GPI", "setting": "mu receptor; DMPP stimulated GPI", "value": "low intrinsic activity mu agonist"},
      {"measurement": "intrinsic activity at mu receptors, in vitro summary", "setting": "mu receptor", "value": "low intrinsic acitivity at mu receptors"},
      {"measurement": "response rates maintained compared with saline", "setting": "[1]; 0.0003-0.01 mg/kg, i.v., substituted for codeine, single 130 minute sessions, FIG. 1", "value": "identical to those maintained by saline"}
    ]},
    {"smiles": "COc1ccc2c3c1O[C@H]1C(=O)CC[C@@]4(NC(=O)C=Cc5ccc(C)cc5)[C@@H](C2)N(CC2CC2)CC[C@]314", "note": "[Me dihydro]", "values": [
      {"measurement": "rank order of affinities", "setting": "opioid receptor subtypes; in vitro MVD", "value": "mu>delta>kappa"},
      {"measurement": "MVD activity profile", "setting": "opioid receptor subtypes; in vitro MVD, in words", "value": "antagonists"},
      {"measurement": "Kb", "setting": "mu opioid receptor", "value": 0.28, "unit": "nM"},
      {"measurement": "Kb", "setting": "kappa opioid receptor", "value": 66.3, "unit": "nM"},
      {"measurement": "Kb", "setting": "delta opioid receptor; in vitro MVD", "value": 19.3, "unit": "nM"},
      {"measurement": "kappa agonist activity in GPI", "setting": "kappa receptor", "value": "predominantly kappa partial agonist activity"},
      {"measurement": "response rates maintained compared with codeine", "setting": "[1]", "value": "appropriately equal to the level of responding maintained by codeine"}
    ]},
    {"smiles": "COc1ccc(C=CC(=O)N[C@@]23CCC(=O)[C@@H]4Oc5c(OC)ccc6c5[C@@]42CCN(CC2CC2)[C@@H]3C6)cc1", "note": "[OMe dihydro]", "values": [
      {"measurement": "RTP, percent effect", "setting": "[2]; at 1 mg/kg, Table 1", "value": 40, "unit": "%"}
    ]}
  ]
}
